Experimental data published in patent publication US20240009191A1, “METHOD AND COMPOSITION FOR THE TREATMENT OF DISEASE” (DIMERIX BIOSCIENCE PTY LTD, priority 2019, published 2024).

What was measured:
Format in all cases: cell-based
[1] = target: T1, AT1R-CXCR2 heteromer (Homo sapiens, UniProt P25025+P30556); assay: BRET trafficking of CXCR2/Rluc8 (Venus/Kras, Rab5, Rab8) with HA-AT1R, pre-treatment with vehicle or antagonists/inverse agonists; conditions: 50 minutes after pre-treatment (10 μM)
T1 sequence (P25025 1-360): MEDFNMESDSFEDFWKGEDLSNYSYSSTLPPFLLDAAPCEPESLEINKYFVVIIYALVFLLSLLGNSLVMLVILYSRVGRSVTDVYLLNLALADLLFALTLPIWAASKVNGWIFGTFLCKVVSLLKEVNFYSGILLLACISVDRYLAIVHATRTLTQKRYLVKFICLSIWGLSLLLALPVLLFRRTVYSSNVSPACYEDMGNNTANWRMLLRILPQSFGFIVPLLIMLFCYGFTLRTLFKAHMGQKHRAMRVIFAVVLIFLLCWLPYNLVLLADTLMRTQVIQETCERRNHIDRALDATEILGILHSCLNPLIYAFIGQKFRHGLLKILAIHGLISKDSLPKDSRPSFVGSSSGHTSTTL
T1 sequence (P30556 1-359): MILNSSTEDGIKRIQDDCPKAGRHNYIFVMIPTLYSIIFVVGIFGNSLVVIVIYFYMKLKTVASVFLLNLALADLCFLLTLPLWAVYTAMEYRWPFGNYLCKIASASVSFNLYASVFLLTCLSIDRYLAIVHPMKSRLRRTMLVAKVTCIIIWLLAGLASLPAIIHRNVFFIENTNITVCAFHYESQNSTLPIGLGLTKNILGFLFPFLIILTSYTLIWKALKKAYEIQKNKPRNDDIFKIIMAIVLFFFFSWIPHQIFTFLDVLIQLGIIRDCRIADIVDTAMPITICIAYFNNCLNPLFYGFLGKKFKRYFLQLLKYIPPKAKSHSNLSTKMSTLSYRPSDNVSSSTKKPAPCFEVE
Protocol: (§1) HEK293FT cells were seeded in 6-well plates at a density of approximately 700,000 cells/well and maintained at 37° C., 5% CO2 in Complete Media (DMEM containing 0.3 mg/ml glutamine, 100 IU/ml penicillin and 100 μg/ml streptomycin (Gibco/Thermo Fisher)) supplemented with 10% fetal calf serum (FCS; Bovogen). Transient transfections were carried out 24 h after seeding using FuGene6™ (Promega) according to manufacturer instructions. 24 h post-transfection, cells were washed with PBS, detached using 0.05% trypsin/0.53 mM EDTA, resuspended in HEPES-buffered phenol red free Complete Media containing 5% FCS and added to a poly-L-lysine-coated white 96-well microplate (Greiner Bio-One). 48 h post-transfection, bioluminescence resonance energy transfer (BRET) assays were carried out following pre-incubation of cells with EnduRen™ (Promega) at a final concentration of 30 μM, at 37° C., 5% CO2 for 2 h. BRET measurements were taken at 37° C. using the LUMlstar™ or CLARIOstar™ (BMG Labtech).
(§2) For antagonist/inverse agonist assays, cells were pre-incubated with EnduRen for 1.5 hours, followed by the addition of vehicle or antagonists/inverse agonists (10 μM) for another 30 minutes.
(§3) The BRET signal observed between interacting proteins is normalized by subtracting the background BRET ratio. […] In the following examples, the second calculation will be used and the signal is described as ligand-induced BRET′. Furthermore, for data shown in FIGS. 4 to 20, all data points in a given set are corrected relative to the final data point prior to agonist treatment, which is fixed to zero. In keys on FIGS. 7 to 20, “>” means “followed by after 50 minutes”, with agonists added at time zero on the x-axes.
(§4) Prior to agonist treatment (added at 0 minutes), a baseline BRET signal was recorded for each of the combinations for 20 minutes. Data were calculated as ligand-induced BRET relative to the ‘vehicle followed by vehicle’ (veh>veh) data set.

[2] = target: T1, AT1R-CXCR2 heteromer; assay: BRET Gi coupling, CXCR2/Rluc8, Venus/mGsi and HA-AT1R, pre-treatment with antagonists/inverse agonists; conditions: FIGS. 6-15
Protocol: as §1, §2, §3, §4

[3] = target: T2, AT1R-CXCR2 heteromer (Homo sapiens, UniProt P25025+P30556); assay: BRET trafficking of AT1R/Rluc8 (Venus/Kras, Rab5) with unlabelled CXCR2, pre-treatment with vehicle or antagonists/inverse agonists; conditions: 50 minutes after pre-treatment (10 μM)
T2 sequence (P30556 1-359): T1 sequence (P30556 1-359)
T2 sequence (P25025 1-360): T1 sequence (P25025 1-360)
Protocol: as §1, §2, §3, §4

CCCCC(=O)N(Cc1ccc(-c2ccccc2-c2nnn[nH]2)cc1)[C@H](C(=O)O)C(C)C [valsartan]
effect of both CXCL8 and AngII combined on CXCR2/Rluc8-Venus/Kras BRET ([1]; 10 nM CXCL8 and 100 nM AngII, FIG. 16C, 16E-16H): indistinguishable from the effect observed with CXCL8 only | effect of both CXCL8 and AngII combined on CXCR2/Rluc8-Venus/Rab5 BRET ([1]; 10 nM CXCL8 and 100 nM AngII, FIG. 17C, 17E-17H): indistinguishable from the effect observed with CXCL8 only | effect of both CXCL8 and AngII combined on CXCR2/Rluc8-Venus/Rab8 BRET ([1]; 10 nM CXCL8 and 100 nM AngII, FIG. 18C, 18E-18H): completely inhibited | effect of AngII on CXCR2/Rluc8-Venus/Kras BRET ([1]; 100 nM AngII only, FIG. 16B, 16D): completely inhibited | effect of AngII on CXCR2/Rluc8-Venus/Rab5 BRET ([1]; 100 nM AngII only, FIG. 17B, 17D): completely inhibited | effect of AngII on CXCR2/Rluc8-Venus/Rab8 BRET ([1]; 100 nM AngII only, FIG. 18B, 18D): completely inhibited | effect of CXCL8 only on CXCR2/Rluc8-Venus/mGsi BRET ([2]; 10 nM CXCL8, 50 minutes after pre-treatment with antagonists/inverse agonists (10 μM)): not being altered | effect of CXCL8 and AngII combined on CXCR2/Rluc8-Venus/mGsi BRET ([2]; 10 nM CXCL8 and 100 nM AngII, 50 minutes after pre-treatment with antagonists/inverse agonists (10 μM)): indistinguishable from that observed with CXCL8 only | effect of AngII only on CXCR2/Rluc8-Venus/mGsi BRET ([2]; 100 nM AngII, 50 minutes after pre-treatment with antagonists/inverse agonists (10 μM)): completely inhibited | effect of both CXCL8 and AngII combined on AT1R/Rluc8-Venus/Kras BRET ([3]; 10 nM CXCL8 and 100 nM AngII, FIG. 19B-19F): completely inhibited | effect of both CXCL8 and AngII combined on AT1R/Rluc8-Venus/Rab5 BRET ([3]; 10 nM CXCL8 and 100 nM AngII, FIG. 20B-20F): completely inhibited | effect of AngII on AT1R/Rluc8-Venus/Kras BRET ([3]; 100 nM AngII only, FIG. 19A): completely inhibited | effect of AngII on AT1R/Rluc8-Venus/Rab5 BRET ([3]; 100 nM AngII only, FIG. 20A): completely inhibited
